Measurements published in patent US10010547B2 (CASCADIAN THERAPEUTICS, INC., priority 2014, dated 2018).
Counter-ions that a name gives are not always drawn. Like-named read-outs stand apart in the source and are kept apart here.

Experiments:
Chk-1 kinase = Chk-1 kinase (Homo sapiens (Human), UniProt O14757); experiment: Chk-1 Kinase Inhibiting Activity (33P-ATP filter assay, CHKtide substrate); assay type: biochemical; details: against Chk-1 kinase; read-out: IC50
Method in brief: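 Full-length N-terminal GST-tagged human Chk-1 from insect cells, 0.5 nM final, with 20 μM peptide substrate and 33P-ATP in HEPES pH 7.5 buffer with 1% DMSO. Reaction ran 120 minutes at room temperature; incorporated radioactivity captured on P81 filters and counted for IC50.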

MIA PaCa-2 cells = experiment: Gemcitabine Combination Cell Assay (Cell Titer Glo); assay type: cell-based; details: for 10xLS: approximate concentration of Chk1 inhibitor that results in a 10-fold reduction in the IC50 of gemcitabine alone; for 2xLS: approximate concentration of Chk1 inhibitor that results in a two-fold reduction in the IC50 of gemcitabine alone
Method in brief: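 MIA PaCa-2 cells were treated 72 h with half-log dilutions of Chk1 inhibitor (top 3000 nM) and gemcitabine (top 100 nM), alone and in full matrix; viability by CellTiter-Glo luminescence. IC50s from four-parameter fit; Chk1 inhibitor concentrations giving two- and ten-fold lowering of gemcitabine IC50 were estimated.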

[1] = Homo sapiens, Chk1 inhibitor alone, MIA PaCa-2 cells, 72 h, read-out: Chk1 IC50
[2] = Homo sapiens, MIA PaCa-2, 72 h, read-out: Chk1 IC50 (nM)

Chain of Chk-1 kinase (O14757 whole entry): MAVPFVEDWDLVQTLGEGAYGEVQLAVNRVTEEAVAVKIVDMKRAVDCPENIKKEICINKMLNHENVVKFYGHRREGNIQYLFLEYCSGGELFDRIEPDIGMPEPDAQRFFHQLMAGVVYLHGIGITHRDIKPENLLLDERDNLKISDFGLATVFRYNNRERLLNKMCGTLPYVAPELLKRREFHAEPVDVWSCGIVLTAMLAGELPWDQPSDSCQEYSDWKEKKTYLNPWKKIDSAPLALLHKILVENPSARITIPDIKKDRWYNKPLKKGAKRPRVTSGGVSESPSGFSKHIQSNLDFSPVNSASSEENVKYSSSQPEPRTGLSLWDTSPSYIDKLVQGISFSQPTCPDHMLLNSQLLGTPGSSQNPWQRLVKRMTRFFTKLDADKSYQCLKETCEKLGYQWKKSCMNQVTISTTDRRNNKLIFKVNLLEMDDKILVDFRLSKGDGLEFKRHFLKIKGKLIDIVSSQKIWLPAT

SMILES | IC50 (Chk-1 kinase) | IC50 (MIA PaCa-2 cells; [1]) | 10xLS (MIA PaCa-2 cells; MIA PaCa-2 cells, 72 h) | 2xLS (MIA PaCa-2 cells; MIA PaCa-2 cells, 72 h) | IC50 (MIA PaCa-2 cells; [2]) | IC50 (MIA PaCa-2 cells; Chk1 inhibitor alone, MIA PaCa-2 cells, 72 h, read-out: Chk1 IC50)
COc1cc(CN[C@H](C)CN2CCOCC2)ccc1-c1cc(Nc2cnc(C#N)cn2)n[nH]1 [Example 18, 5-[[5-[2-methoxy-4-[[[(1R)-1-methyl-2-morpholino-ethyl]amino]methyl]phenyl]-1H-pyrazol-3-yl]amino]pyrazine-2-carbonitrile] | 0.17 nM | 1610 nM | ~200 nM | ~5 nM | – | –
CCNCc1ccc(-c2cc(Nc3cnc(C#N)cn3)n[nH]2)c(OC)c1 [Example 90, 5-[[5-[4-(ethylaminomethyl)-2-methoxy-phenyl]-1H-pyrazol-3-yl]amino]pyrazine-2-carbonitrile] | 0.058 nM | 390 nM | <300 nM | 10 nM | – | –
COc1cc(N2CCN(C)CC2)ccc1-c1cc(Nc2cnc(C#N)cn2)n[nH]1 [Example 22, 5-[[5-[2-methoxy-4-(4-methylpiperazin-1-yl)phenyl]-1H-pyrazol-3-yl]amino]pyrazine-2-carbonitrile hydrochloride] | 0.026 nM | – | <30 nM | <3 nM | 88 nM | –
COc1cc(OCC2CCN(C)CC2)ccc1-c1cc(Nc2cnc(C#N)cn2)n[nH]1 [Example 29, 5-[[5-[2-methoxy-4-[(1-methyl-4-piperidyl)methoxy]phenyl]-1H-pyrazol-3-yl]amino]pyrazine-2-carbonitrile] | 0.068 nM | 176 nM | 100 nM | 3 nM | – | –
CCN1CCC[C@H]1COc1ccc(-c2cc(Nc3cnc(C#N)cn3)n[nH]2)c(OC)c1 [Example 128, 5-[[5-[4-[[(2S)-1-ethylpyrrolidin-2-yl]methoxy]-2-methoxy-phenyl]-1H-pyrazol-3-yl]amino]pyrazine-2-carbonitrile] | 0.023 nM | 158 nM | <100 nM | <3 nM | – | –
CCN1CC[C@H](OCc2ccc(-c3cc(Nc4cnc(C#N)cn4)n[nH]3)c(OC)c2)C1 [Example 138, 5-[[5-[4-[[(3S)-1-ethylpyrrolidin-3-yl]oxymethyl]-2-methoxy-phenyl]-1H-pyrazol-3-yl]amino]pyrazine-2-carbonitrile] | 0.041 nM | 836 nM | 300 nM | <10 nM | – | –
COc1cc(CN(C)C(C)C)ccc1-c1cc(Nc2cnc(C#N)cn2)n[nH]1 [Example 100, 5-[[5-[4-[[isopropyl(methyl)amino]methyl]-2-methoxy-phenyl]-1H-pyrazol-3-yl]amino]pyrazine-2-carbonitrile] | 0.053 nM | 247 nM | <100 nM | 3 nM | – | –
COc1cc(NC2CCN(C(C)C)CC2)ccc1-c1cc(Nc2cnc(C#N)cn2)n[nH]1 [Example 112, 5-[[5-[4-[(1-isopropyl-4-piperidyl)amino]-2-methoxy-phenyl]-1H-pyrazol-3-yl]amino]pyrazine-2-carbonitrile] | 0.0042 nM | 253 nM | 100 nM | <3 nM | – | –
COc1cc(C2CCN(C)CC2)c(Cl)cc1-c1cc(Nc2cnc(C#N)cn2)n[nH]1 [Example 67, 5-[[5-[5-chloro-2-methoxy-4-(1-methyl-4-piperidyl)phenyl]-1H-pyrazol-3-yl]amino]pyrazine-2-carbonitrile] | 1.8 nM | 1320 nM | 1000 nM | 100 nM | – | –
COc1cc(COC2CCN(C)CC2)ccc1-c1cc(Nc2cnc(C#N)cn2)n[nH]1 [Example 113, 5-[[5-[2-methoxy-4-[(1-methyl-4-piperidyl)oxymethyl]phenyl]-1H-pyrazol-3-yl]amino]pyrazine-2-carbonitrile] | 0.27 nM | – | 300 nM | 3 nM | – | 531 nM
COc1cc([C@@H]2CN(C)CCO2)ccc1-c1cc(Nc2cnc(C#N)cn2)n[nH]1 [Example 117, 5-[[5-[2-Methoxy-4-[(2R)-4-methylmorpholin-2-yl]phenyl]-1H-pyrazol-3-yl]amino]pyrazine-2-carbonitrile hydrochloride] | 0.027 nM | – | 1000 nM | 10 nM | 1890 nM | –
N#Cc1cnc(Nc2cc(-c3ccc(C4CCNCC4)cc3)[nH]n2)cn1 [Example 56, 5-[[5-[4-(4-piperidyl)phenyl]-1H-pyrazol-3-yl]amino]pyrazine-2-carbonitrile] | 183 nM | > 3000 nM | >3000 nM | 1000 nM | – | –
COc1cc(OCC2CCCN2)ccc1-c1cc(Nc2cnc(C#N)cn2)n[nH]1 (centres unmarked) [Example 34, 5-[[5-[2-methoxy-4-(pyrrolidin-2-ylmethoxy)phenyl]-1H-pyrazol-3-yl]amino]pyrazine-2-carbonitrile] | 0.14 nM | 183 nM | 100 nM | 3 nM | – | –
CCN1CCC(Cc2ccc(-c3cc(Nc4cnc(C#N)cn4)n[nH]3)c(OC)c2)CC1 [Example 143, 5-[[5-[4-[(1-Ethyl-4-piperidyl)methyl]-2-methoxy-phenyl]-1H-pyrazol-3-yl]amino]pyrazine-2-carbonitrile hydrochloride] | 0.021 nM | – | <300 nM | <10 nM | 820 nM | –
COc1cc(C2(F)CCN(C(C)C)CC2)ccc1-c1cc(Nc2cnc(C#N)cn2)n[nH]1 [Example 86, 5-[[5-[4-(4-fluoro-1-isopropyl-4-piperidyl)-2-methoxy-phenyl]-1H-pyrazol-3-yl]amino]pyrazine-2-carbonitrile] | 0.12 nM | 239 nM | <100 nM | <3 nM | – | –
CCN1CCC(c2ccc(-c3cc(Nc4cnc(C#N)cn4)n[nH]3)c(OC)c2)CC1 [Example 60, 5-[[5-[4-(1-ethyl-4-piperidyl)-2-methoxy-phenyl]-1H-pyrazol-3-yl]amino]pyrazine-2-carbonitrile hydrochloride] | 0.1 nM | – | 100 nM | 3 nM | 329 nM | –
COc1cc(C2(F)CCNCC2)ccc1-c1cc(Nc2cnc(C#N)cn2)n[nH]1 [Example 76, 5-[[5-[4-(4-fluoro-4-piperidyl)-2-methoxy-phenyl]-1H-pyrazol-3-yl]amino]pyrazine-2-carbonitrile] | 0.11 nM | 482 nM | 300 nM | 10 nM | – | –
COc1cc(C2CCCN(C)C2)ccc1-c1cc(Nc2cnc(C#N)cn2)n[nH]1 (centres unmarked) [Example 40, 5-[[5-[2-methoxy-4-(1-methyl-3-piperidyl)phenyl]-1H-pyrazol-3-yl]amino]pyrazine-2-carbonitrile] | 0.14 nM | 188 nM | 30 nM | <3 nM | – | –
COc1cc(CN[C@@H](C)c2ccc(F)cc2)ccc1-c1cc(Nc2cnc(C#N)cn2)n[nH]1 [Example 6, 5-[5-(4-{[(S)-1-(4-fluoro-phenyl)-ethylamino]-methyl}-2-methoxy-phenyl)-1H-pyrazol-3-ylamino]-pyrazine-2-carbonitrile] | 0.097 nM | 338 nM | 300 nM | 30 nM | – | –
COc1cc(N2CCCN(C)CC2)ccc1-c1cc(Nc2cnc(C#N)cn2)n[nH]1 [Example 23, 5-[[5-[2-methoxy-4-(4-methyl-1,4-diazepan-1-yl)phenyl]-1H-pyrazol-3-yl]amino]pyrazine-2-carbonitrile] | 0.12 nM | 266 nM | <100 nM | <3 nM | – | –
